{"source": "patent US20230043678A1", "about": "“USE OF 5-METHYLTETRAHYDROFOLATE” (priority 2019, published 2023)", "key": {"[1]": {"system": "transcription factors (Nkx2.5, amhc, vmhc, hand2, has2, mef2a, mef2c, bmp2b, ephrinB2, ephB4) in zebrafish embryos", "assay": "qRT-PCR expression of transcription factors during development of zebrafish embryos (Example 4)", "type": "in vivo", "details": "8 mM FA", "protocol": "In order to explore an effect of folic acid on epigenetics during development of the zebrafish embryos, the zebrafish embryos at different developmental stages were collected for testing. […] A fluorescent dye SYBR Green was used in the qRT-PCR experiment. The qRT-PCR was conducted according to the instructions of an SYBR Green qPCR Master Mix kit and a detection was conducted on an ABI (HT 7900) PCR instrument. […] An expression of β-actin was used as an internal reference and relative expression levels of other genes were calculated by a ΔΔCt method."}, "[2]": {"system": "fetal rat heart", "assay": "Effect of high-dose folic acid on fetal rat heart, histopathology (Example 8)", "type": "in vivo, SD rats", "details": "for Development delay / Malformation cases / Malformation rate / Sparse myocardial trabeculae / Ventricular defects/septal defects: fetal rats", "protocol": "28 each of female and male adult healthy SD rats, weighing about 200-250 g, were purchased from SPF (Beijing) biotechnology co., LTD. After all animals were purchased, general physiological indicators, body weight and feeding of the animals were observed. The animals were adaptively fed for one week. […] The animals were fed day and night in natural lighting, and at a room temperature of 18-26° C. and a relative humidity of 40%-70%.\nThe obtained 16 pregnant mice were randomly divided into 4 groups with 4 rats in each group according to body weight: a normal group, a high-dose folic acid group, a middle-dose folic acid group and a low-dose folic acid group. The high-dose folic acid (36.44 mg/kg) group, the middle-dose folic acid (18.22 mg/kg) group, the low-dose folic acid (9.11 mg/kg) group and a blank control group were separately set. The pregnant mice were intragastrically administrated with a 1 ml/100 g solution. The pregnant mice were given pure water in the normal group. The pregnant mice in the other groups started to be administrated on the 2nd day after grouping once a day for 21 consecutive days. The pregnant mice in each group freely ate and drunk. After the female rats were administrated for 7 days, male and female rats were mated in a cage at a ratio of 1:1 overnight, a vaginal plug was checked the next morning, a day when the vaginal plug was found was regarded as day 0 of pregnancy, the pregnant mice were separately fed and administrated for 21 consecutive days, and a fetus was obtained by cesarean section.\nRoutine histopathologic paraffin sample preparation, serial section (a thickness of 5 μm) and HE staining were conducted. Sample preparation: routine histopathologic paraffin sample sections were prepared and each sample was 1 paraffin block; and section: each numbered sample had 20 sections. A starting point of mounting was when the paraffin block was sliced, there were ventricular mounting slices and 4 consecutive tissue points were mounted on each glass slide on average. HE staining: there were 20 glass slides for each sample and every other 1 slide was taken for HE staining, a total of 10 slides. Observation and analysis: Leica panoramic image acquisition and comparative analysis were conducted. Fetal rat hearts were dissected and sliced for observation, and the results were as follows."}, "[3]": {"system": "fetal rat heart", "assay": "Effect of folic acid on fetal rat heart under pharmacological dose (Example 9)", "type": "in vivo, rats", "protocol": "In order to investigate an effect of folic acid on fetal rat heart under pharmacological dose, 6 folic acid groups and a blank control group were divided in the experiment, the folic acid groups were divided into a folic acid group 1 (4.555 mg/kg/d), a folic acid group 2 (2.2775 mg/kg/d), a folic acid group 3 (0.911 mg/kg/d), a folic acid group 4 (0.4555 mg/kg/d), a folic acid group 5 (0.22775 mg/kg/d) and a folic acid group 6 (0.113875 mg/kg/d). The folic acid groups and the blank control group consisted of 4 pregnant mice each. The pregnant mice in the folic acid group 1 (4.555 mg/kg/d), the folic acid group 2 (2.2775 mg/kg/d) and the folic acid group 3 (0.911 mg/kg/d) were intraperitoneally injected, the pregnant mice in the folic acid group 4 (0.4555 mg/kg/d), the folic acid group 5 (0.22775 mg/kg/d) and the folic acid group 6 (0.113875 mg/kg/d) were intragastrically administrated, and the pregnant mice in the blank control group were naturally fed. After the female rats were administrated for 7 days, male and female rats were mated in a cage at a ratio of 1:1 overnight, a vaginal plug was checked the next morning, a day when the vaginal plug was found was regarded as day 0 of pregnancy, the pregnant mice were separately fed and administrated for 21 consecutive days, a fetus was obtained by cesarean section, and the number of fetal rats in each group was shown in FIG. 30. Fetal rat hearts were taken for a pathological examination and the results were as follows."}, "[4]": {"system": "congenital heart defects in offspring", "details": "cited from earlier work"}, "[5]": {"system": "zebrafish embryos", "assay": "Teratogenic effect of folic acid on zebrafish embryos (Example 3)", "details": "for embryo coverage: 8 hpf", "method": "Transgenic zebrafish (fli-1:EGFP) were from the Model Animal Research Center of Nanjing University. Adult zebrafish aged less than 1 were used for experiment and fed at a water pH value of 7±0.2, a temperature around 28° C. and a ratio of illumination to darkness of 14 h:10 h, and with Artemia salina eggs twice a day. Three zebrafish, one female, two males, were placed in a spawning box the night before and eggs were collected the next morning. Fish eggs were placed in an embryo culture medium (prepared with 0.2 g/L of sea salt) and cultured at 28° C. […] Dead embryos were cleaned up in time. A phenotype of malformation was observed, the number of all abnormal zebrafish where the malformation was present was recorded and a malformation rate and a rescue rate of each group were calculated. Morphological defects, a heart rate, cardiac morphology and other indicators were observed and evaluated by an SMZ745T inverted stereomicroscope."}, "[6]": {"details": "folic acid 9.11 mg/kg intragastric"}, "[7]": {"details": "folic acid 18.22 mg/kg intragastric"}, "[8]": {"details": "folic acid 36.44 mg/kg intragastric"}, "[9]": {"details": "Group 1: folic acid 4.555 mg/kg/d intraperitoneal"}, "[10]": {"details": "Group 2: folic acid 2.2775 mg/kg/d intraperitoneal"}, "[11]": {"details": "Group 3: folic acid 0.911 mg/kg/d intraperitoneal"}, "[12]": {"details": "Group 4: folic acid 0.4555 mg/kg/d intragastric"}, "[13]": {"details": "Group 5: folic acid 0.22775 mg/kg/d intragastric"}, "[14]": {"details": "Group 6: folic acid 0.113875 mg/kg"}, "[15]": {"details": "Group 6: folic acid 0.113875 mg/kg/d intragastric"}}, "data": [{"smiles": "Nc1nc2ncc(CNc3ccc(C(=O)N[C@@H](CCC(=O)O)C(=O)O)cc3)nc2c(=O)[nH]1", "note": "[FA, pteroylglutamic acid]", "values": [{"measurement": "expression of bmp2b gene", "setting": "[1]; 24 hpf", "result": "decreased an expression of a bmp2b gene"}, {"measurement": "expression of mef2c gene", "setting": "[1]; 24 hpf", "result": "increased an expression of a mef2c gene"}, {"measurement": "expression of ephb4 gene", "setting": "[1]; 48 hpf", "result": "inhibited"}, {"measurement": "expression of has2 gene", "setting": "[1]; 48 hpf", "result": "inhibited"}, {"measurement": "expression of mef2c gene", "setting": "[1]; 48 hpf", "result": "inhibited"}, {"measurement": "expression of vmhc gene", "setting": "[1]; 48 hpf", "result": "increased an expression of a vmhc gene"}, {"measurement": "Development delay", "setting": "[2]; [6]", "result": 1}, {"measurement": "Malformation cases", "setting": "[2]; [6]", "result": 3}, {"measurement": "Malformation rate", "setting": "[2]; [6]", "result": 10.7, "unit": "%"}, {"measurement": "Sparse myocardial trabeculae", "setting": "[2]; [6]", "result": 1}, {"measurement": "Ventricular defects/septal defects", "setting": "[2]; [6]", "result": 3}, {"measurement": "Development delay", "setting": "[2]; [7]", "result": 1}, {"measurement": "Malformation cases", "setting": "[2]; [7]", "result": 4}, {"measurement": "Malformation rate", "setting": "[2]; [7]", "result": 15.4, "unit": "%"}, {"measurement": "Sparse myocardial trabeculae", "setting": "[2]; [7]", "result": 2}, {"measurement": "Ventricular defects/septal defects", "setting": "[2]; [7]", "result": 2}, {"measurement": "Development delay", "setting": "[2]; [8]", "result": 3}, {"measurement": "Malformation cases", "setting": "[2]; [8]", "result": 4}, {"measurement": "Malformation rate", "setting": "[2]; [8]", "result": 25, "unit": "%"}, {"measurement": "Sparse myocardial trabeculae", "setting": "[2]; [8]", "result": 1}, {"measurement": "Ventricular defects/septal defects", "setting": "[2]; [8]", "result": 4}, {"measurement": "litter rate of rats", "setting": "[2]; folic acid, high dose", "result": "reduce the litter rate under a high dose"}, {"measurement": "ventricular septum disappeared (number of animals)", "setting": "[2]; high-dose folic acid group 36.44 mg/kg", "result": 1}, {"measurement": "Atrioventricular defects/septal defects", "setting": "[3]; [9]", "result": 3}, {"measurement": "Development delay", "setting": "[3]; [9]", "result": 1}, {"measurement": "Malformation cases", "setting": "[3]; [9]", "result": 4}, {"measurement": "Malformation rate", "setting": "[3]; [9]", "result": 12.9, "unit": "%"}, {"measurement": "Sparse myocardial trabeculae", "setting": "[3]; [9]", "result": 0}, {"measurement": "Atrioventricular defects/septal defects", "setting": "[3]; [10]", "result": 2}, {"measurement": "Development delay", "setting": "[3]; [10]", "result": 2}, {"measurement": "Malformation cases", "setting": "[3]; [10]", "result": 4}, {"measurement": "Malformation rate", "setting": "[3]; [10]", "result": 12.1, "unit": "%"}, {"measurement": "Sparse myocardial trabeculae", "setting": "[3]; [10]", "result": 0}, {"measurement": "Atrioventricular defects/septal defects", "setting": "[3]; [11]", "result": 1}, {"measurement": "Development delay", "setting": "[3]; [11]", "result": 2}, {"measurement": "Malformation cases", "setting": "[3]; [11]", "result": 3}, {"measurement": "Malformation rate", "setting": "[3]; [11]", "result": 11.5, "unit": "%"}, {"measurement": "Sparse myocardial trabeculae", "setting": "[3]; [11]", "result": 0}, {"measurement": "Atrioventricular defects/septal defects", "setting": "[3]; [12]", "result": 5}, {"measurement": "Development delay", "setting": "[3]; [12]", "result": 0}, {"measurement": "Malformation cases", "setting": "[3]; [12]", "result": 5}, {"measurement": "Malformation rate", "setting": "[3]; [12]", "result": 17.2, "unit": "%"}, {"measurement": "Sparse myocardial trabeculae", "setting": "[3]; [12]", "result": 0}, {"measurement": "Atrioventricular defects/septal defects", "setting": "[3]; [13]", "result": 5}, {"measurement": "Development delay", "setting": "[3]; [13]", "result": 0}, {"measurement": "Malformation cases", "setting": "[3]; [13]", "result": 5}, {"measurement": "Malformation rate", "setting": "[3]; [13]", "result": 15.2, "unit": "%"}, {"measurement": "Sparse myocardial trabeculae", "setting": "[3]; [13]", "result": 0}, {"measurement": "atrial walls defective (number of individuals)", "setting": "[3]; [14]", "result": 1}, {"measurement": "ventricular septal defects (number of individuals)", "setting": "[3]; [14]", "result": 3}, {"measurement": "Atrioventricular defects/septal defects", "setting": "[3]; [15]", "result": 4}, {"measurement": "Development delay", "setting": "[3]; [15]", "result": 1}, {"measurement": "Malformation cases", "setting": "[3]; [15]", "result": 4}, {"measurement": "Malformation rate", "setting": "[3]; [15]", "result": 9.5, "unit": "%"}, {"measurement": "Sparse myocardial trabeculae", "setting": "[3]; [15]", "result": 0}, {"measurement": "reduction of risk of CHD", "setting": "[4]; folic acid supplementation, hospital case-control studies in Guangdong, Hubei, Fujian and Shanxi", "result": 65, "unit": "%"}, {"measurement": "lower risk of giving birth to infants with heart defects", "setting": "[4]; women taking folic acid, case-control study, north of the Netherlands", "result": "approximately 20%"}, {"measurement": "embryo coverage", "setting": "[5]; 2 mM FA", "result": "covered completely"}, {"measurement": "heart shape and lower intestinal network blood vessels", "setting": "[5]; 2 mM FA, 72 hpf", "result": "normal heart shape and normal development of lower intestinal network blood vessels"}, {"measurement": "heart shape and lower intestinal network blood vessels", "setting": "[5]; FA 4 mM or above, 72 hpf", "result": "pericardium edema malformations, atrial and ventricular elongation and developmental disorders of lower intestinal network blood vessels"}, {"measurement": "embryo coverage", "setting": "[5]; FA groups of other concentrations (4-10 mM)", "result": "not covered completely"}, {"measurement": "survival rate of embryos", "setting": "[5]; all FA groups (2, 4, 6, 8, 10 mM)", "result": "low survival rate of embryos"}, {"measurement": "body length of embryos", "setting": "[5]; folic acid 8 mM, 72 hpf", "result": "significantly shortened the body length of the embryos"}, {"measurement": "embryo morphology", "setting": "[5]; folic acid, 24 hpf", "result": "developmental malformation of heads and tails of the embryos"}, {"measurement": "embryonic heart rate", "setting": "[5]; folic acid, especially at 48 hpf", "result": "affected an embryonic heart rate"}]}]}
